US20250114345A1, “COMPOUNDS AND COMPOSITIONS AS CBP/P300 DEGRADERS AND USES THEREOF” (Oncopia Therapeutics, Inc. d/b/a/ SK Life Science Labs, priority 2023, published 2025)

Molecular target: T1, p300 (Homo sapiens, UniProt Q09472)
T1 construct: host or cells: A549 P300 HiBit cells
Test: P300 degradation, HiBit technology in A549 P300 HiBit cells (2 h)
Format: cell-based
Settings: 2 hrs post treatment; for Dmax: A549, A549 P300 HiBit cells; for DC50: A549 P300 HiBit cells
Experimental: p300 and CBP degradation potency and Dmax were determined using in cell western (ICW) assay technology in H1299 cells or HiBit technology in A549 HiBit cells.
A549 P300 HiBit and A549 CBP HiBit cells were plated in separate 384-well, TC treated, white-opaque, flat-bottomed microplate. Cells were plated at a cell density of 0.2×10^4 cells per well in assay media comprised of F-12K, 10% heat inactivated FBS, and 1% penicillin/streptomycin. Assay microplates containing HiBit cells were placed in a 37° C., 5% CO2, tissue culture incubator and left to equilibrate overnight. The next day cells were treated with serial dilutions of test compound made up of 10 mM stock solutions in DMSO. 384-Well plates containing treated cells were then placed back into a 37° C., 5% CO2, tissue culture incubator. Assay microplates containing A549 P300 HiBit cells were incubated for 2 hrs post treatment before P300 destruction was assessed, while microplates containing A549 CBP HiBit cells were incubated for 24 hrs post treatment before CBP destruction was determined. On the day of each assay time point, microplates were removed from the tissue culture incubator and prepared HiBit Lytic detection buffer (Promega, cat #N3O40) was added to each plate. Plates were covered with aluminum foil and incubated for ten minutes at room temperature on an orbital shaker. After incubation, luminescent signal of each plate was measured using the Envision instrument (Perkin Elmer).

T1 sequence (Q09472 whole entry): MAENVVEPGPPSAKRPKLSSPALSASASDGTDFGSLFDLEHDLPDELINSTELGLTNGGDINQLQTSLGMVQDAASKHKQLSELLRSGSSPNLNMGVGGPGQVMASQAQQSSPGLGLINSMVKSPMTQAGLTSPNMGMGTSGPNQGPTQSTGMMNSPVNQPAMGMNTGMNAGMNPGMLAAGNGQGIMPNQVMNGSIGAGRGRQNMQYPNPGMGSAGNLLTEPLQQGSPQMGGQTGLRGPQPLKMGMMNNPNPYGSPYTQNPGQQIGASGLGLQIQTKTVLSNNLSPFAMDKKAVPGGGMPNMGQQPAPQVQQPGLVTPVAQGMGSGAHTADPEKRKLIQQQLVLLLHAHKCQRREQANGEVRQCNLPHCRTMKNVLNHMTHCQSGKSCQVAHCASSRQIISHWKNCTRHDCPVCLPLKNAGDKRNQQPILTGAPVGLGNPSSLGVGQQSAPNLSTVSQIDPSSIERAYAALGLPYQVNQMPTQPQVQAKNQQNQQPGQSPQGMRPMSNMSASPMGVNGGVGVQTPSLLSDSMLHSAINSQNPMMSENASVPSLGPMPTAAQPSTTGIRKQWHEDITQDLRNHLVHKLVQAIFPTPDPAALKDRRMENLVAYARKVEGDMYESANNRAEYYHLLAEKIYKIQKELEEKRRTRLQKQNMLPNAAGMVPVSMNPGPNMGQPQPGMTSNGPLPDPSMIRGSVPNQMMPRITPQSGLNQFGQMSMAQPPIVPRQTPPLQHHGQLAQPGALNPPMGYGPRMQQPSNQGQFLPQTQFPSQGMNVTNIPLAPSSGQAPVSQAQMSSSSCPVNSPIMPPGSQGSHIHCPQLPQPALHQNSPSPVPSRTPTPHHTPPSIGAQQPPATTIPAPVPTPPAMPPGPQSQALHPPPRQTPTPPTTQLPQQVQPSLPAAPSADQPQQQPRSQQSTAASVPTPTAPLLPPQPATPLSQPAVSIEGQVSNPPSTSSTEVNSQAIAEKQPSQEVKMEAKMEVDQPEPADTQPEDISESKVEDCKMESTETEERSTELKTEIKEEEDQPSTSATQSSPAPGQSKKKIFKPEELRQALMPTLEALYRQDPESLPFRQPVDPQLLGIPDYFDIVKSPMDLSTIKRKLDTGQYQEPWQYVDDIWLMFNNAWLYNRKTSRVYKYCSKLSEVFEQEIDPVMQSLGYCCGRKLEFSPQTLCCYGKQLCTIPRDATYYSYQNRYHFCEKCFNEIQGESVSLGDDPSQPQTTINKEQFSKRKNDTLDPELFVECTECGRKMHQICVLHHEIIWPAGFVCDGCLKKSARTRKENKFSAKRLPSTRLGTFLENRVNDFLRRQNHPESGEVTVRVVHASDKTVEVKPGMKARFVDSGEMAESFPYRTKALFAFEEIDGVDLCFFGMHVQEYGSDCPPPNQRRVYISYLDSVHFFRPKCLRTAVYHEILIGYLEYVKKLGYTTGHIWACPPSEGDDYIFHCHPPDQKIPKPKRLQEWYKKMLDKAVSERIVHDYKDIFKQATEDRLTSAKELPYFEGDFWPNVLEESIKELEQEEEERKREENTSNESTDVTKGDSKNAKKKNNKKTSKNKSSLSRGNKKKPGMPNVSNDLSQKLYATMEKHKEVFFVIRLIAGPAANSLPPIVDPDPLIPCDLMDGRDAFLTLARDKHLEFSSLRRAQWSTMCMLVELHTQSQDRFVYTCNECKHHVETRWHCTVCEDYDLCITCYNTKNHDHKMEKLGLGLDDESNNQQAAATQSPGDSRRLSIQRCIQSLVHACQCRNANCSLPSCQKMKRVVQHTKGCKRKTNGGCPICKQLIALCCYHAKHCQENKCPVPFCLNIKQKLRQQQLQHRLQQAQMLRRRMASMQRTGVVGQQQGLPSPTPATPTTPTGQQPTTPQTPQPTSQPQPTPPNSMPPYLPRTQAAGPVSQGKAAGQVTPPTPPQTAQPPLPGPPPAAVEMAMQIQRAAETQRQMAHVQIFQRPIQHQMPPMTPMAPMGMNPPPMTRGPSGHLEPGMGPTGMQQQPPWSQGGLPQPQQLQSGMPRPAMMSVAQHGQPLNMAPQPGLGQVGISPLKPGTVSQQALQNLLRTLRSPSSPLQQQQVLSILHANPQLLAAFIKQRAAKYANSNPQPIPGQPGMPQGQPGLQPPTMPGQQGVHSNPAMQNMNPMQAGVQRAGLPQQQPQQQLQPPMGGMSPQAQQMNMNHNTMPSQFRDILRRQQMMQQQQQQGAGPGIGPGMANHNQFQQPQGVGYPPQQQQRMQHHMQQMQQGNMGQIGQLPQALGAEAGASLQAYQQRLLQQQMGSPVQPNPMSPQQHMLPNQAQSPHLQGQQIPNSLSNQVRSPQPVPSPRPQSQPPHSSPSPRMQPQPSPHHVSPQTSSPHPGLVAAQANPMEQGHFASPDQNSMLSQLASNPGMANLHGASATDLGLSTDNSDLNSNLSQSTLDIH

| Structure (SMILES) | Dmax [%] | DC50 [nM] |
| --- | --- | --- |
| [2H]C([2H])([2H])N(c1cnc(-c2cnc(C(=O)NCC#Cc3ccc4occ(C5CCC(=O)NC5=O)c4c3)c(C)c2)nc1)c1cc(C(C)C)c2c(c1)n(C)c(=O)n2C (stereo not drawn) [Example A65, N-(3-(3-(2,6-dioxopiperidin-3-yl)benzofuran-5-yl)prop-2-yn-1-yl)-5-(5-((7-isopropyl-1,3-dimethyl-2-oxo-2,3-dihydro-1H-benzo [d]imidazol-5-yl)(methyl-d3)amino)pyrimidin-2-yl)-3-methylpicolinamide] | > 80 | 1 to 9.9 |
| CN1C2CCC1CN(c1nc(-c3cccc4cc(-c5ccc(C(=O)NCC#Cc6ccc7occ(C8CCC(=O)NC8=O)c7c6)nc5)ncc34)cc3c1n(C)c(=O)n3C)C2 (stereo not drawn) [Example A67, 5-(8-(1,3-dimethyl-4-(8-methyl-3,8-diazabicyclo[3.2.1]octan-3-yl)-2-oxo-2,3-dihydro-1H-imidazo [4,5-c]pyridin-6-yl)isoquinolin-3-yl)-N-(3-(3-(2,6-dioxopiperidin-3-yl)benzofuran-5-yl)prop-2-yn-1-yl)picolinamide] | 60 to 79 | 1 to 9.9 |
| CC(C)c1cc(-c2ncc(N(C)c3cc(C(C)C)c4c(c3)n(C)c(=O)n4C)cn2)cnc1C(=O)NCC#Cc1ccc2occ(C3CCC(=O)NC3=O)c2c1 (stereo not drawn) [Example A71, N-(3-(3-(2,6-dioxopiperidin-3-yl)benzofuran-5-yl)prop-2-yn-1-yl)-3-isopropyl-5-(5-((7-isopropyl-1,3-dimethyl-2-oxo-2,3-dihydro-1H-benzo[d]imidazol-5-yl)(methyl)amino)pyrimidin-2-yl)picolinamide] | > 80 | 1 to 9.9 |
| Cn1c(=O)n(C)c2cc(-c3cccc4cc(-c5cnc(C(=O)NCC#Cc6ccc7occ(C8CCC(=O)NC8=O)c7c6)c(Cl)c5)ncc34)ccc21 (stereo not drawn) [Example A73, 3-chloro-5-(8-(1,3-dimethyl-2-oxo-2,3-dihydro-1H-benzo[d]imidazol-5-yl)isoquinolin-3-yl)-N-(3-(3-(2,6-dioxopiperidin-3-yl)benzofuran-5-yl)prop-2-yn-1-yl)picolinamide] | > 80 | 1 to 9.9 |
| Cc1cc(-c2ncc(N(C)c3cc4c(c(C(C)C)n3)n(C)c(=O)n4C)cn2)cnc1C(=O)NCC#Cc1ccc2occ(C3CCC(=O)NC3=O)c2c1 (stereo not drawn) [Example A74, N-(3-(3-(2,6-dioxopiperidin-3-yl)benzofuran-5-yl)prop-2-yn-1-yl)-5-(5-((4-isopropyl-1,3-dimethyl-2-oxo-2,3-dihydro-1H-imidazo[4,5-c]pyridin-6-yl)(methyl)amino)pyrimidin-2-yl)-3-methylpicolinamide] | < 20 | > 1000 |
| CC(C)c1nc(N2CCCc3nc(-c4ccc(C(=O)NCC#Cc5ccc6occ(C7CCC(=O)NC7=O)c6c5)nc4)ncc32)cc2c1n(C)c(=O)n2C (stereo not drawn) [Example A76, N-(3-(3-(2,6-dioxopiperidin-3-yl)benzofuran-5-yl)prop-2-yn-1-yl)-5-(5-(4-isopropyl-1,3-dimethyl-2-oxo-2,3-dihydro-1H-imidazo[4,5-c]pyridin-6-yl)-5,6,7,8-tetrahydropyrido[3,2-d]pyrimidin-2-yl)picolinamide] | < 20 | > 1000 |
| CCn1c(=O)n(C)c2c(C)cc(N3CCOc4nc(-c5ccc(C(=O)NCC#Cc6ccc7occ(C8CCC(=O)NC8=O)c7c6)nc5)ncc43)cc21 (stereo not drawn) [Example A77, N-(3-(3-(2,6-dioxopiperidin-3-yl)benzofuran-5-yl)prop-2-yn-1-yl)-5-(5-(3-ethyl-1,7-dimethyl-2-oxo-2,3-dihydro-1H-benzo[d]imidazol-5-yl)-6,7-dihydro-5H-pyrimido[4,5-b][1,4]oxazin-2-yl)picolinamide] | 60 to 79 | 1 to 9.9 |
| Cn1c(=O)n(C)c2c(C3CCOCC3)nc(N3CCCc4nc(-c5ccc(C(=O)NCC#Cc6ccc7occ(C8CCC(=O)NC8=O)c7c6)nc5)ncc43)cc21 (stereo not drawn) [Example A78, 5-(5-(1,3-dimethyl-2-oxo-4-(tetrahydro-2H-pyran-4-yl)-2,3-dihydro-1H-imidazo[4,5-c]pyridin-6-yl)-5,6,7,8-tetrahydro-pyrido[3,2-d]pyrimidin-2-yl)-N-(3-(3-(2,6-dioxopiperidin-3-yl)benzofuran-5-yl)prop-2-yn-1-yl)picolinamide] | < 20 | > 1000 |
| Cc1cc(-c2ncc(N(C)c3cc(N4CCOCC4)c4oc(=O)n(C)c4c3)cn2)cnc1C(=O)NCC#Cc1ccc2occ(C3CCC(=O)NC3=O)c2c1 (stereo not drawn) [Example A80, N-(3-(3-(2,6-dioxo-piperidin-3-yl)benzofuran-5-yl)prop-2-yn-1-yl)-3-methyl-5-(5-(methyl (3-methyl-7-morpholino-2-oxo-2,3-dihydrobenzo [d]oxazol-5-yl)amino)pyrimidin-2-yl)picolinamide] | < 20 | > 1000 |
| CC(C)c1cc(C(F)(F)c2ccc(-c3ccc(C(=O)NCC#Cc4ccc5occ(C6CCC(=O)NC6=O)c5c4)nc3)nc2)cc2c1n(C)c(=O)n2C (stereo not drawn) [Example A81, 5-(difluoro(7-isopropyl-1,3-dimethyl-2-oxo-2,3-dihydro-1H-benzo[d]imidazol-5-yl)methyl)-N-(3-(3-(2,6-dioxopiperidin-3-yl)benzofuran-5-yl)prop-2-yn-1-yl)-[2,3′-bipyridine]-6′-carboxamide] | < 20 | > 1000 |
| [2H]C([2H])([2H])N(c1cnc(-c2cnc(C(=O)NCC#Cc3ccc4occ(C5CCC(=O)NC5=O)c4c3)c(C)c2)nc1)c1cc(C2CCOCC2)c2c(c1)n(C)c(=O)n2C (stereo not drawn) [Example A82, 5-(5-((1,3-dimethyl-2-oxo-7-(tetrahydro-2H-pyran-4-yl)-2,3-dihydro-1H-benzo [d]imidazol-5-yl) (methyl-d3)amino)pyrimidin-2-yl)-N-(3-(3-(2,6-dioxo-piperidin-3-yl)benzofuran-5-yl)prop-2-yn-1-yl)-3-methylpicolinamide] | > 80 | 1 to 9.9 |
| CC(C)c1cc(C2CC(C)(C)Oc3cc(-c4ccc(C(=O)NCC#Cc5ccc6occ(C7CCC(=O)NC7=O)c6c5)nc4)c(F)cc32)cc2c1n(C)c(=O)n2C (stereo not drawn) [Example A85, N-(3-(3-(2,6-dioxo-piperidin-3-yl)benzofuran-5-yl)prop-2-yn-1-yl)-5-(6-fluoro-4-(7-isopropyl-1,3-dimethyl-2-oxo-2,3-dihydro-1H-benzo [d]imidazol-5-yl)-2,2-dimethylchroman-7-yl)picolinamide] | > 80 | 1 to 9.9 |
| Cc1cc(-c2ncc(N(C)c3cc(C4CCOCC4)c4c(c3)n(C)c(=O)n4C)nn2)cnc1C(=O)NCC#Cc1ccc2occ(C3CCC(=O)NC3=O)c2c1 (stereo not drawn) [Example A90, 5-(6-((1,3-dimethyl-2-oxo-7-(tetrahydro-2H-pyran-4-yl)-2,3-dihydro-1H-benzo[d]imidazol-5-yl)(methyl)amino)-1,2,4-triazin-3-yl)-N-(3-(3-(2,6-dioxopiperidin-3-yl)benzofuran-5-yl)prop-2-yn-1-yl)-3-methylpicolinamide] | < 20 | 1 to 9.9 |
| Cc1cc(-c2ncc3c(n2)OCCN3c2cc3c(c(N4CCOCC4)n2)n(C)c(=O)n3C)cnc1C(=O)NCC#Cc1ccc2occ(C3CCC(=O)NC3=O)c2c1 (stereo not drawn) [Example A91, 5-(5-(1,3-dimethyl-4-morpholino-2-oxo-2,3-dihydro-1H-imidazo[4,5-c]pyridin-6-yl)-6,7-dihydro-5H-pyrimido[4,5-b][1,4]oxazin-2-yl)-N-(3-(3-(2,6-dioxopiperidin-3-yl)benzofuran-5-yl)prop-2-yn-1-yl)-3-methylpicolinamide] | < 20 | 10 to 99 |
| Cc1cc(-c2cc3c(cc2C(F)F)N(c2ccc4c(c2)n(C)c(=O)n4C)CCC3)cnc1C(=O)NCC#Cc1ccc2occ(C3CCC(=O)NC3=O)c2c1 (stereo not drawn) [Example A94, 5-(7-(difluoromethyl)-1-(1,3-dimethyl-2-oxo-2,3-dihydro-1H-benzo[d]imidazol-5-yl)-1,2,3,4-tetrahydro-quinolin-6-yl)-N-(3-(3-(2,6-dioxopiperidin-3-yl)benzofuran-5-yl)prop-2-yn-1-yl)-3-methylpicolinamide] | > 80 | 1 to 9.9 |
| Cc1cc(-c2ncc(N(C)c3cc(C(C)C)c4c(c3)n(C)c(=O)n4C)cc2C#N)cnc1C(=O)NCC#Cc1ccc2occ(C3CCC(=O)NC3=O)c2c1 (stereo not drawn) [Example A98, 3-cyano-N-(3-(3-(2,6-dioxopiperidin-3-yl)benzofuran-5-yl)prop-2-yn-1-yl)-5-((7-isopropyl-1,3-dimethyl-2-oxo-2,3-dihydro-1H-benzo[d]imidazol-5-yl)(methyl)amino)-5′-methyl-[2,3′-bipyridine]-6′-carboxamide] | > 80 | 1 to 9.9 |
| Cn1c(=O)oc2ccc(-c3cccc4cc(-c5ccc(C(=O)NCC#Cc6ccc7occ(C8CCC(=O)NC8=O)c7c6)nc5)ncc34)cc21 (stereo not drawn) [Example A101, N-(3-(3-(2,6-dioxo-piperidin-3-yl)benzofuran-5-yl)prop-2-yn-1-yl)-5-(8-(3-methyl-2-oxo-2,3-dihydrobenzo[d]oxazol-5-yl)isoquinolin-3-yl)picolinamide] | < 20 | > 1000 |
| Cc1cc(-c2ncc(N(C)c3ccc4c(c3)n(C)c(=O)n4C)cn2)cnc1C(=O)NCC#Cc1ccc2occ(C3CCC(=O)NC3=O)c2c1 (stereo not drawn) [Example A103, 5-(5-((1,3-dimethyl-2-oxo-2,3-dihydro-1H-benzo[d]imidazol-5-yl)(methyl)amino)pyrimidin-2-yl)-N-(3-(3-(2,6-dioxopiperidin-3-yl)benzofuran-5-yl)prop-2-yn-1-yl)-3-methylpicolinamide] | 60 to 79 | 1 to 9.9 |
